Data on 16 compounds can be found in patent publication US20100204460A1, “NATURAL BRASSINOSTEROIDS FOR USE FOR TREATING HYPERPROLIFERATION, TREATING PROLIFERATIVE DISEASES AND REDUCING ADVERSE EFFECTS OF STEROID DYSFUNCTION IN MAMMALS, PHARMACEUTICAL COMPOSITION AND ITS USE” (priority 2007, published 2010).

Data set [1] concerns normal and cancer cell lines of different histopathological origin. As to the kind of experiment: Calcein AM cytotoxicity assay, summary statements over the cell line panel. In kind it is cell-based. The following applies: for cytotoxic / growth inhibitory activity in words: tested in amounts up to 50 μmol/L per assay. How it is done: Stock solutions ([…]) were prepared by dissolving relevant quantity of substance in DMSO cultivation media (DMEM, RPMI 1640, F-12 medium), fetal bovine serum (FBS), L-glutamine, penicillin, and streptomycin were purchased from Sigma (MO, USA). 3-(4,5-Dimethylthiazol-2-yl)-2,5-diphenyltetrazolium bromide (MTT) was from Serva Electrophoresis (Heidelberg, Germany). Monoclonal mouse anti-bromodeoxyuridine (BrdU) intibody was obtained from DakoCytomation (Glostrup, Denmark). Calcein AM was obtained from PAA Laboratories GmbH (Pasching, Austria). The screening cell lines (T-lymphoblastic leukaemia cell line CEM; breast carcinoma cell line MCF-7 (estrogen-sensitive), breast adenocarcinoma cell line MDA-MB 468 (cell lines LNCaP (androgen-sensitive), prostate carcinoma cell line DU-145 ([…]), lung carcinoma cell line A-549, chronic myelogenous leukemia cell line K562, multiple myeloma cell line RPMI 8226, cervical carcinoma cell line HeLa, malignant human melanoma cell line G361, osteosarcoma cell line HOS, and normal human fibroblasts (BJ) were obtained from the American Type Culture Collection (Manassas, Va., USA). MCF-7 cells were cultured in F-12 medium (Sigma, MO, USA). LNCaP cells were cultured in RPMI 1640 medium (GIBCO, USA). All other cells were cultured in DMEM medium (Sigma, MO, USA). All used media were supplemented with 10% heat-inactivated fetal bovine serum, 2 mmol/L L-glutamine, 1% penicillin/streptomycin. The cell lines were maintained under standard cell culture conditions at 37° C. and 5% CO2 in a humid environment. Cells were subcultured twice or three times a week using the standard trypsinization procedure (Sigma, USA).
The cell suspension of approximate density of 1.25×10^5 cells/mL was redistributed into 96-well microtitre plates and after 12 h of stabilization the tested Brassinosteroids (BRs) were added in different concentrations. BRs were dissolved in DMSO. Control cultures were treated with DMSO alone. The final concentration of DMSO in the reaction mixture never exceeded 1%. Tested compounds in given concentrations were added at time zero in 20 μL aliquots to the microtiter plate wells. Usually, each test compound was evaluated at six 4-fold dilutions. In routine testing, the highest well concentration was 50 μmol, but it can be the matter of change dependent on the agent. Cultivation proceeds 96 h at 37° C., the cells were incubated with Calcein AM solution (Molecular Probes) for 1 h. Fluorescence (OD) of viable cells was quantified with Fluoroscan Ascent (Microsystems). The cell survival (IC50) was calculated using the following equation: IC50=(ODdrug exposed well/mean ODcontrol wells)×100%. Each compound was tested in triplicates and the test was repeated at least 3 times. The IC50 value, corresponding to drug concentration lethal to 50% of the tumor cells, was calculated from the obtained dose response curves.
We investigated effects of brassinosteroid on viability of normal and cancer cell lines of different histopathological origin. To evaluate the cytotoxic properties of several BRs and some related steroids, we used T-lymphoblastic leukaemia cell line CEM, breast carcinoma cell line MCF-7, lung carcinoma cell line A-549, chronic myeloid leukaemia cell line K562, multiple myeloma cell line RPMI 8226, cervical carcinoma cell line HeLa, malignant melanoma cell line G361, osteosarcoma cell line HOS, and normal human fibroblasts BJ. The cells were exposed to six 4-fold dilutions of each drug for 72 h to determinate number of surviving cells.

Data set [2] deals with malignant human melanoma cell line G361. Nature of the data set: Calcein AM cytotoxicity assay, G 361. In kind it is cell-based.
In data set [3] the test system is T-lymphoblastic leukaemia cell line CEM. Nature of the data set: Calcein AM cytotoxicity assay, CEM. The data set is classed as cell-based. The conditions noted are these: read-out: IC50 assessed by Calcein AM assay of surviving cells.
In data set [4] the test system is normal human fibroblasts (BJ). Nature of the data set: Calcein AM cytotoxicity assay, BJ. In kind it is cell-based. The conditions noted are these: read-out: IC50 assessed by Calcein AM assay of surviving cells.
The test system of data set [5] is multiple myeloma cell line RPMI 8226. Nature of the data set: Calcein AM cytotoxicity assay, RPMI 8226. The following applies: exposure 72 h (b71 says 96 h), mean ± SD. The data set is classed as cell-based.
Data set [6] concerns herpes simplex virus type 1 (HSV-1). The following applies: cited from earlier work.
The next data set has as its system arena viruses. The following applies: cited from earlier work.
For a further data set, the system named is measles virus (MV). The conditions noted are these: cited from earlier work.
Where [7] appears, read: Homo sapiens, G 361, exposure 72 h (b71 says 96 h), mean ± SD, read-out: IC50 assessed by Calcein AM assay of surviving cells.
Where [8] appears, read: CEM, six 4-fold dilutions, exposure 72 h (b71 says 96 h), mean ± SD.
Where [9] appears, read: Homo sapiens, Fibroblast, BJ normal fibroblasts, exposure 72 h (b71 says 96 h), mean ± SD.
Setting [10] is: Homo sapiens, RPMI-8226, RPMI 8226, read-out: IC50 assessed by Calcein AM assay of surviving cells.
The mark [11] stands for this setting: G 361, exposure 72 h (b71 says 96 h), mean ± SD, read-out: IC50 assessed by Calcein AM assay of surviving cells.
[12] abbreviates: BJ normal fibroblasts, exposure 72 h (b71 says 96 h), mean ± SD.
[13] abbreviates: RPMI 8226, read-out: IC50 assessed by Calcein AM assay of surviving cells.
Setting [14] is: Homo sapiens, G-361, read-out: IC50 assessed by Calcein AM assay of surviving cells.
Setting [15] is: Homo sapiens, RPMI-8226, read-out: IC50 assessed by Calcein AM assay of surviving cells, RPMI 8226.

Entries after “also recorded” stand apart in the source; their conditions may differ. Read-outs that look alike come from different tables or passages of the source.

For orientation: IC50 means the midpoint of a concentration-inhibition curve.

Consider `CC(C)CCC[C@@H](C)[C@H]1CC[C@H]2[C@@H]3CC[C@H]4CCCC[C@]4(C)[C@H]3CC[C@]12C` [5α-cholestane], for which the “cytotoxic / growth inhibitory activity in words” value in data set [1] is recorded as “Almost zero activity”. The IC50 in data set [2] (setting [7]), in data set [3] (setting [8]), in data set [4] (setting [9]) and in data set [5] (setting [10]) was more than 50 µM throughout.

Turning to `CC(C)[C@@H](C)[C@H](O)[C@@H](O)[C@@H](C)[C@H]1CC[C@H]2[C@@H]3COC(=O)[C@H]4C[C@H](O)[C@H](O)C[C@]4(C)[C@H]3CC[C@]12C` [22S,23S-24-Epibrassinolide], the IC50 in data set [2] (setting [11]), in data set [3] (setting [8]), in data set [4] (setting [12]) and in data set [5] (setting [13]) was more than 50 µM each time.

`CC(C)[C@@H](C)[C@H](O)[C@@H](O)[C@@H](C)[C@H]1CC[C@H]2[C@@H]3CC(=O)[C@H]4C[C@H](O)[C@H](O)C[C@]4(C)[C@H]3CC[C@]12C` [22S,23S-24-Epicastasterone]: the IC50 was more than 50 µM in data set [2] (setting [11]), 49 ± 1.8 µM in data set [3] (setting [8]), more than 50 µM in data set [4] (setting [12]) and more than 50 µM in data set [5] (setting [13]).

With `CC[C@@H](C(C)C)[C@H](O)[C@@H](O)[C@@H](C)[C@H]1CC[C@H]2[C@@H]3COC(=O)[C@H]4C[C@H](O)[C@H](O)C[C@]4(C)[C@H]3CC[C@]12C` [22S,23S-28-Homobrassinolide], the IC50 in data set [1] (range over RPMI 8226 and CEM values of Table 1) is 31 to 35 µM; in data set [2] (setting [11]), more than 50 µM; in data set [3] (setting [8]), 35 ± 2.2 µM; in data set [4] (setting [12]) it was more than 50 µM; in data set [5] (setting [13]), 31 ± 7.3 µM.

As to `CC[C@@H](C(C)C)[C@H](O)[C@@H](O)[C@@H](C)[C@H]1CC[C@H]2[C@@H]3CC(=O)[C@H]4C[C@H](O)[C@H](O)C[C@]4(C)[C@H]3CC[C@]12C` [22S,23S-28-Homocastasterone], the IC50 in data set [2] (setting [11]) was 45 ± 2.2 µM; in data set [3] (setting [8]) it was 24 ± 1.5 µM; in data set [4] (setting [12]), more than 50 µM; in data set [5] (setting [13]), 25 µM.

For the compound `CC(C)[C@@H](C)/C=C/[C@@H](C)[C@H]1CC[C@H]2[C@@H]3CC=C4C[C@@H](O)CC[C@]4(C)[C@H]3CC[C@]12C` [Brassicasterol], the “cytotoxic / growth inhibitory activity in words” value in data set [1] is “Almost zero activity”. Also, the IC50 in data set [2] (setting [11]), in data set [3] (setting [8]), in data set [4] (setting [12]) and in data set [5] (setting [13]) was more than 50 µM throughout.

As for `CC(C)[C@H](C)[C@@H](O)[C@H](O)[C@@H](C)[C@H]1CCC2C3COC(=O)C4C[C@H](O)[C@H](O)C[C@]4(C)C3CC[C@@]21C` (some centres unmarked) [Brassinosteroid 1], the IC50 is more than 50 µM in data set [2] (setting [14]); more than 50 µM in data set [3]; more than 50 µM in data set [4] (Homo sapiens, Fibroblast); more than 50 µM in data set [5] (setting [15]).

As to `CC[C@@H](C(C)C)[C@@H](O)[C@H](O)[C@@H](C)[C@H]1CC[C@H]2[C@@H]3COC(=O)[C@H]4C[C@H](O)[C@H](O)C[C@]4(C)[C@H]3CC[C@]12C` [Brassinosteroid 2, 28-Homobrassinolide], the “in vitro antiviral activity” value (in data set [6]; in the data set on arena viruses; in the data set on measles virus (MV)) was “in vitro antiviral activity” in each case.

In the case of `CC[C@@H](C(C)C)[C@@H](O)[C@H](O)[C@@H](C)[C@H]1CCC2C3COC(=O)C4C[C@H](O)[C@H](O)C[C@]4(C)C3CC[C@@]21C` (some centres unmarked) [Brassinosteroid 2], the IC50 in data set [2] (setting [7]) is more than 50 µM; in data set [3] (setting [8]) it was 48 ± 1.3 µM; in data set [4] (setting [9]) it was more than 50 µM; in data set [5] (setting [10]), more than 50 µM.

On to `CC(C)[C@H](C)[C@@H](O)[C@H](O)[C@@H](C)[C@H]1CC[C@H]2[C@@H]3CC(=O)[C@H]4C[C@H](O)[C@H](O)C[C@]4(C)[C@H]3CC[C@]12C` [Brassinosteroid 8, Castasterone], for which the “cytotoxic / growth inhibitory activity in words” value in data set [1] is “high cytotoxicity”.

`CC(C)[C@H](C)[C@@H](O)[C@H](O)[C@@H](C)[C@H]1CCC2C3CC(=O)C4C[C@H](O)[C@H](O)C[C@]4(C)C3CC[C@@]21C` (some centres unmarked) [Brassinosteroid 8]: the IC50 was more than 50 µM in data set [2] (setting [7]), 16 ± 5.3 µM in data set [3] (setting [8]), more than 50 µM in data set [4] (setting [9]) and 33 ± 1.3 µM in data set [5] (setting [10]).

For `CC(C)[C@H](C)[C@@H](O)[C@H](O)[C@@H](C)[C@H]1CCC2C3CC(=O)C4C[C@H](O)[C@@H](O)C[C@]4(C)C3CC[C@@]21C` (some centres unmarked) [Brassinosteroid 16], the IC50 in data set [2] (setting [11]), in data set [3] (setting [8]), in data set [4] (setting [12]) and in data set [5] (setting [13]) was more than 50 µM in each case.

As to `CC(C)CCC[C@@H](C)[C@H]1CC[C@H]2[C@@H]3CC=C4C[C@@H](O)CC[C@]4(C)[C@H]3CC[C@]12C` [Cholesterol], the IC50 in data set [2] (setting [7]) is more than 50 µM; in data set [3] (setting [8]), more than 50 µM; in data set [4] (setting [9]), more than 50 µM; in data set [5] (setting [10]) it was more than 30 µM; in data set [5] (setting [13]), 38 ± 2.9 µM.

With `CC[C@H](CC[C@@H](C)[C@H]1CC[C@H]2[C@@H]3CC=C4C[C@@H](O)CC[C@]4(C)[C@H]3CC[C@]12C)C(C)C` [Sitosterol], the “cytotoxic / growth inhibitory activity in words” value in data set [1] was “Almost zero activity”. For the same compound, the IC50 in data set [2] (setting [11]) was more than 50 µM; in data set [3] (setting [8]) it was more than 50 µM; in data set [4] (setting [12]), more than 50 µM; in data set [5] (setting [13]), 32 ± 1.6 µM.

`CC[C@H](/C=C/[C@@H](C)[C@H]1CC[C@H]2[C@@H]3CC=C4C[C@@H](O)CC[C@]4(C)[C@H]3CC[C@]12C)C(C)C` [Stigmasterol]: the “cytotoxic / growth inhibitory activity in words” value in data set [1] is listed as “Almost zero activity”. The IC50 in data set [2] (setting [14]) was more than 50 µM; in data set [3] it was more than 50 µM; in data set [4] (Homo sapiens, Fibroblast), more than 50 µM; in data set [5] (setting [15]), more than 30 µM; in data set [5] (read-out: IC50 assessed by Calcein AM assay of surviving cells, RPMI 8226) it was 32 ± 0.6 µM.

In the case of `CC(C)(O)CC[C@@H](O)[C@](C)(O)[C@H]1CC[C@@]2(O)C3=CC(=O)[C@@H]4C[C@@H](O)[C@@H](O)C[C@]4(C)[C@H]3CC[C@]12C` [β-ecdyson], the “cytotoxic / growth inhibitory activity in words” value in data set [1] (listed as β-ecdysone) is given as “Almost zero activity; also recorded: zero growth inhibitory activity”. Further, the IC50 in data set [2] (setting [11]), in data set [3] (setting [8]), in data set [4] (setting [12]) and in data set [5] (setting [13]) was more than 50 µM each time.
